From patent US7780873B2, “Bioactive complexes compositions and methods of use thereof” (Texas A&M University System, priority 2004, dated 2010)
Where two headings read alike, the source gives them in different places.

What was measured:
[1] = Lipid oxidation of O/W Menhaden oil-based emulsions; format: physicochemical; conditions: gallic acid alone or with coenzyme Q10; emulsified with egg yolk PC; pH 6.0; GC
[2] = test system: human promyelocytic leukemia HL-60 cells; conditions: cited from earlier work
[3] = rat duodenal infusion, cited from earlier work
[4] = from emulsions containing corn oil

SMILES: O=C(O)c1cc(O)c(O)c(O)c1 [gallic acid]
- pro-/antioxidative properties of control samples [1]: prooxidative properties
- apoptotic cell death [2]: induced apoptotic cell death

SMILES: CC1=C(/C=C/C(C)=C/C=C/C(C)=C/C=C/C=C(C)/C=C/C=C(C)/C=C/C2=C(C)C(=O)[C@@H](O)CC2(C)C)C(C)(C)C[C@H](O)C1=O [astaxanthin]
- average recovery in the lymph [3, 4]: 13%
- average recovery in the lymph ([3]; from olive oil emulsion): 20%

SMILES: CC(C)=CCC/C(C)=C/C=C/C(C)=C/C=C/C(C)=C/C=C/C=C(C)/C=C/C=C(C)/C=C/C=C(\C)CCC=C(C)C [LYC, lycopene]
- average recovery in the lymph [3, 4]: 2.5%
- average recovery in the lymph ([3]; from olive oil emulsion): 6%
